Experimental data published in article PMC11289669, “BAR502/fibrate conjugates: synthesis, biological evaluation and metabolic profile” (Frontiers in Chemistry, 2024).
Several values for one entry are separate records, joined by “and”; a condition that tells them apart may be missing. Equal entries are not always repeated.

Key:
FXR = target: T1, FXR (Homo sapiens, UniProt Q96RI1); assay: AlphaScreen coactivator (SRC-1) recruitment assay on FXR; type: biochemical; conditions: for FXR efficacy (% vs. CDCA): AlphaScreen SRC-1 recruitment, compounds at 10 μM, CDCA = 100%; for EC50: AlphaScreen coactivator recruitment, FXR with SRC-1
T1 sequence (Q96RI1 262-486 limits assumed): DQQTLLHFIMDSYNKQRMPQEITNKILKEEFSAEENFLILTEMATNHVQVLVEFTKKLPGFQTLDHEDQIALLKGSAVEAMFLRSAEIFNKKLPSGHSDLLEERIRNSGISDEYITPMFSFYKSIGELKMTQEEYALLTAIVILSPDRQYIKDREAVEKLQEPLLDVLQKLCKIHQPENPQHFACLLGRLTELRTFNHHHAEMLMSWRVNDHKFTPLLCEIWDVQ
Experimental: Compounds’ ability to mediate cofactor recruitment was evaluated by employing AlphaScreen GST Detection Kit (PerkinElmer). Particularly, FXR agonism was evaluated employing 10 nM FXR-LBD GST-fused (Thermo Scientific) and 30 nM of biotinylated SRC1 peptide ([…]) in the presence of 20 μg/mL donor and acceptor beads and in buffer containing 50 mM Tris-HCl (pH7.4), 20 mM KCl, 1 mM DTT, and 0.1% BSA. For PPARα assay, a buffer containing 50 mM MOPS, 50 mM NaF, 0.05 mM CHAPS, and 0.05% BSA (pH = 7.4) was used, and 20 nM PPARα LBD GST fused (Thermo Scientific) and 60 nM of biotinylated SRC1 peptide were employed. Both acceptor and donor beads were added to reach 20 μg/mL final concentration. Incubations were performed in a final volume of 25 μL employing 384 wells Optiplate and Alpha signal was measured with Envision 2,105 (Perkin Elmer) multimode plate reader. For efficacy, compounds were tested at 10 μM for FXR and 50 μM for PPARα.

GPBAR1 = target: T2, GPBAR1 (Homo sapiens, UniProt Q8TDU6); assay: GPBAR1 transactivation (CRE-luciferase reporter) assay in HEK-293T cells; type: cell-based; conditions: for Emax: 18 h, read-out: GPBAR1 efficacy (% vs. TLCA); for EC50: transactivation assay, HEK-293T cells
T2 construct: expressed in transfected cells; host or cells: HEK-293T
T2 sequence (Q8TDU6 1-330): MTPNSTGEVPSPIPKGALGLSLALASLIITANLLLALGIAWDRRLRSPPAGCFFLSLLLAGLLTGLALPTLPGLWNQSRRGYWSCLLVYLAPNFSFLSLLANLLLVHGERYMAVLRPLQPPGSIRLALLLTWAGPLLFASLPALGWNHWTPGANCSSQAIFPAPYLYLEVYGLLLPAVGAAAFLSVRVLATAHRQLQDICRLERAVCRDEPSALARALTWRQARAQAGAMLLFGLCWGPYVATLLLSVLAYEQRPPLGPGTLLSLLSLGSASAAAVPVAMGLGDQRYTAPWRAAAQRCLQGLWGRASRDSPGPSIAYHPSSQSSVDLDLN
Experimental: HepG2 and HEK-293T cells were cultured at 37 °C in minimal essential medium (MEM) and Dulbecco’s Modified Eagle Medium (DMEM) respectively, supplemented with 10% fetal bovine serum, 1% L-glutamine, 100 U/mL penicillin, and 100 μg/mL streptomycin. To investigate FXR-mediated transactivation, the HepG2 cells were transfected with 200 ng of the reporter vector p (hsp27)TK-Luc containing the FXR response element IR1 cloned from the promoter of heat shock protein 27 (hsp27), plus 100 ng pSG5-FXR, 100 ng pSG5-RXR, and 100 ng pGL4.70 Renilla. To evaluate GPBAR1 mediated transactivation, HEK-293T cells were transfected with 200 ng of human pGL4.29 (Promega), a reporter vector containing a cAMP response element (CRE) that drives the transcription of the luciferase reporter gene luc2P, with 100 ng of pCMVSPORT6-human GPBAR1, and with 100 ng of pGL4.70. At 24 h post-transfection, cells were stimulated 18 h with 10 μM TLCA (taurolithocholic acid a GPBAR1 agonist) or CDCA (FXR agonist) and compounds. To calculate the EC50 on FXR and GPBAR1, dose-response curves were performed in HEK-293T cells transfected as described above and then treated with increasing concentrations of compounds (from 0.1 to 50 µM). After treatments, cells were lysed in 100 μL of lysis buffer (25 mM Tris-phosphate, pH 7.8; 2 mM DTT; 10% glycerol; 1% Triton X-100), and 10 μL of cellular lysate was assayed for luciferase activity using the Firfly &Renilla Luciferase assay kit (Biotium). Luminescence was measured using Glomax 20/20 luminometer (Promega). Luciferase activities were assayed and normalized with Renilla activities.

U937 cells = assay: Pro-inflammatory gene expression (qRT-PCR) in LPS-activated U937 cells; type: cell-based, human; conditions: LPS 100 ng/mL, 18 h, compound 1 10 μM; for IL-1β mRNA expression / IL-6 mRNA expression: BAR502 and clofibrate 5 and 10 μM
Experimental: U937 cell line were cultured in RPMI 1640 supplemented with 10% FBS, 1% glutamine, and 1% penicillin/streptomycin and were regularly passaged to maintain exponential growth. After 24 h of starvation cells were classically activated with LPS (100 ng/mL; Sigma-Aldrich, St. Louis, MO), and exposed or not to BAR502, clofibrate and compound 1 at the concentration of 5 and 10 μM for 18 h. At the end of the experiment the cells were recovered. Total mRNA extraction from U937 and 3T3.L1 was performed using Tri-Reagent (Zymo Research) and Direct-zolTM RNA MiniPrep w/Zymo-SpinTM IIC Columns (Zymo Research, Irvine, CA). After purification from genomic DNA using DNase I (Thermo Fisher Scientific, Waltham, MA), 1 μg of RNA from each sample was reverse transcribed using Kit […] Basic (Nippon Genetics, […] 20-μL of reaction volume; 50 ng of cDNA was amplified in a 20-μL solution containing 200 nM each primer and 10 μL of PowerUpTM SYBRTM Green Master Mix (Thermo Fisher Scientific, Waltham, MA). All reactions were performed in triplicate using the following thermal cycling conditions: 3 min at 95°C, followed by 40 cycles of 95°C for 15 s, 56°C for 20 s, and 72°C for 30 s, using a QuantStudio 3 system (Applied Biosystems, Foster City, CA). The relative mRNA expression was calculated accordingly to the ΔCt method. Primers were designed using the software PRIMER3 (http://frodo.wi.mit.edu/primer3/) using published data obtained from the NCBI database. The primer used were as following (forward and reverse): hGAPDH (for […]-1β (for [NT], hIL6 (for [NT] hCXCL2 (for [NT] hTNFα; (for [NT], mAdiponectin (for […]ɤ (for [NT], mCebp (for [NT]

[1] = transactivation on HEK-293T cells, TLCA 10 μM = 100%

| Structure (SMILES) | FXR efficacy (% vs. CDCA) (FXR) | EC50 (FXR) [nM] | Emax (GPBAR1; [1]) [%] | EC50 (GPBAR1) [nM] | GPBAR1 efficacy (% vs. TLCA) (GPBAR1; [1]) [%] | IL-1β mRNA expression (U937 cells) | IL-6 mRNA expression (U937 cells) | CXCL2 mRNA expression (U937 cells) |
| --- | --- | --- | --- | --- | --- | --- | --- | --- |
| CC[C@@H]1C2C[C@H](O)CC[C@]2(C)C2CC[C@@]3(C)C(CC[C@@H]3[C@H](C)CCOC(=O)C(C)(C)Oc3ccc(Cl)cc3)C2[C@@H]1O (some centres unmarked) [Compound 1] | 79% and 79.0 ± 3.8% | 3400 ± 1200 | 145 | 370 ± 20 | 145 ± 10 | greatest efficacy in reducing the expression | greatest efficacy in reducing the expression | the only compound also reducing the expression |
| CC[C@H]1[C@@H](O)[C@@H]2[C@H](CC[C@]3(C)[C@@H]([C@H](C)CCO)CC[C@@H]23)[C@@]2(C)CC[C@@H](O)C[C@@H]12 [BAR502, 6α-ethyl-3α,7α-dihydroxy-24-nor-5β-cholan-23-ol] | 153.0 ± 3.1% | 690 ± 150 | 79.5 ± 11.8 | 400 ± 100 | – | reducing the expression of pro-inflammatory cytokines | reducing the expression of pro-inflammatory cytokines | – |
